Source: patent US4385055A, “2-Acetyl-and 2-propionylpyridine thiosemicarbazones as antimalarials” (The United States of America as represented by the …, priority 1981, dated 1983)
Values after ≈ are worked out from the molar mass of the structure shown. Where two headings read alike, the source gives them in different places.

Tests used:
[1] = test system: Mycobacterium intracellulare; test: Broth dilution MIC, Mycobacterium intracellulare strains (Test 6); type: cell-based; conditions: read-out: Minimum Inhibitory Concentration
Staphylococcus aureus = test: Macro broth dilution MIC, Staphylococcus aureus isolates (Test 1); type: cell-based; conditions: 24 h, read after 24 hours, read-out: Minimum Inhibitory Concentration
Experimental: (§1) Compounds were tested against five isolates of Staphylococcus aureus and five isolates of Group D Enterococcus. The bacteria used were isolated from patients at the Walter Reed Army Medical Center, Washington, D.C. The test procedure used was the macro broth dilution method in duplicate as outlined by J. C. Sherris on pages 414-415 in "Manual of Clinical Microbiology," 2nd ed., E. Lennette, E. H. Spaulding, and J. P. Truant, Ed. (American Society for Microbiology, Washington, D.C., 1974). Each compound was dissolved in DMSO (12.8 mg/mL) and then diluted with Mueller-Hinton broth to obtain the desired dilutions. Tubes containing the highest quantities of DMSO with no compound present were run as controls.

Neisseria meningitidis = test: Macro broth dilution MIC, Neisseria meningitidis isolates (Test 2); type: cell-based; conditions: Neisseria meningitidis, 24 h, read after 24 hours, read-out: Minimum Inhibitory Concentration
Experimental: Compounds were tested against five isolates of Neisseria meningitidis. The bacterial isolates were provided by the Department of Bacterial Diseases of the Walter Reed Army Institute of Research. The test procedure used was the macro broth dilution method in duplicate outlined by J. C. Sherris on pages 414-415 (loc. cit.). The test compounds and controls were prepared as in Test 1 above. Ampicillin and penicillin standards were initially diluted as described by J. C. Sherris on pages 411-412 (loc. cit.) followed by dilution with Mueller-Hinton broth. The tubes were incubated at 37° C. under 5-10% carbon dioxide.

Neisseria gonorrhoeae = test: Agar dilution MIC, Neisseria gonorrhoeae isolates (Test 3); type: cell-based; conditions: 24 h, read-out: Minimum Inhibitory Concentration
Experimental: Compounds were tested against six Neisseria gonorrhoeae isolates. The bacteria used were provided by the Department of Bacterial Diseases of the Walter Reed Army Institute of Research. The test procedure used was the agar dilution method in duplicate as outlined by J. C. Sherris on pages 411-412 (loc. cit.). GC Medium (Difco) with a 2% defined supplement added as described by D. S. Kellogg et al. [J. Bact. 85:1274-1279 (1963)] was used as the media. The compounds were dissolved in DMSO (1.0 mg/mL), diluted with GC broth (GC Medium without agar) to the appropriate concentration, and added to the GC Medium at 55°-56° C. The latter was then poured and allowed to solidify. A penicillin standard was also prepared with initial dilutions as described by J. C. Sherris followed by dilutions with GC broth and addition to the GC Medium at 55°-56° C. as above. The inoculum was 1:200 GC broth dilution of a suspension of colony isolates after the suspension was adjusted visually to the turbidity standard described by J. M. Matsen and A. L. Barr on page 422 in "Manual of Clinical Microbiology," 2nd ed., E. Lennette, E. H. Spaulding, and J. P. Truant, Ed. (American Society for Microbiology, Washington, D.C., 1974). The plates were inoculated with a replicator and incubated at 37° C. under 5-10% carbon dioxide.

Group D Enterococcus = test: Macro broth dilution MIC, Group D Enterococcus isolates (Test 1); type: cell-based; conditions: 24 h, read after 24 hours, read-out: Minimum Inhibitory Concentration
Experimental: as §1

[2] = test system: Plasmodium berghei KBG 173; test: In vivo antimalarial activity in mice (Test 5); set-up: key to In vivo Antimalarial Activity: C: Mice surviving 60 days are considered cured; Active: Activity is defined as a 100% increase in the mean survival time of the treated mice compared to the control group; Toxicity is defined as a decrease in the mean survival time of the treated mice as compared to the control group; conditions: for ED50: Plasmodium berghei, computed estimate of the dose required to cure 50% of the mice; for In vivo Antimalarial Activity: mice, C = Cure (cured/treated mice)
Experimental: Compounds were tested against Plasmodium berghei KBG 173 malaria in mice following the procedure described by T. S. Osdene, P. B. Russell, and L. Rane [J. Med. Chem. 10:431-434 (1967)]. Five mice were tested at each dosage level. Mice surviving 60 days are considered cured. Toxicity is defined as a decrease in the mean survival time of the treated mice as compared to the control group. Activity is defined as a 100% increase in the mean survival time of the treated mice compared to the control group.

[3] = Staphylococcus aureus isolate I
[4] = Staphylococcus aureus isolate II
[5] = Staphylococcus aureus isolate III
[6] = Staphylococcus aureus isolate IV
[7] = Staphylococcus aureus isolate V
[8] = Neisseria meningitidis isolate 7957
[9] = Neisseria meningitidis isolate 7990
[10] = Neisseria meningitidis isolate 8005
[11] = Neisseria meningitidis isolate 8006
[12] = Neisseria meningitidis isolate 8011

Row | Structure (SMILES) | MIC (Staphylococcus aureus; [3]) [µg/mL] | MIC (Staphylococcus aureus; [4]) [µg/mL] | MIC (Staphylococcus aureus; [5]) [µg/mL] | MIC (Staphylococcus aureus; [6]) [µg/mL] | MIC (Staphylococcus aureus; [7]) [µg/mL] | MIC (Neisseria meningitidis; [8]) [µg/mL] | MIC (Neisseria meningitidis; [9]) [µg/mL] | MIC (Neisseria meningitidis; [10]) [µg/mL] | MIC (Neisseria meningitidis; [11]) [µg/mL] | MIC (Neisseria meningitidis; [12]) [µg/mL] | ED50 [2] [mg/kg] | In vivo Antimalarial Activity ([2]; Dosage Level 160 mg/kg) | In vivo Antimalarial Activity ([2]; Dosage Level 640 mg/kg) | also measured
1 | CC(=NNC(=S)N1CC2CCC(CC2)C1)c1ccccn1 [L, 3-Azabicyclo[3.2.2]nonane-3-thiocarboxylic acid 2-[1-(2-pyridyl)ethylidene]hydrazide] | 1 (≈ 3.31 µM) | 1 (≈ 3.31 µM) | 1 (≈ 3.31 µM) | 1 (≈ 3.31 µM) | 1 (≈ 3.31 µM) | 0.031 (≈ 0.102 µM) | 0.062 (≈ 0.205 µM) | < 0.031 | 0.062 (≈ 0.205 µM) | 0.125 (≈ 0.413 µM) | 59 | – | – | MIC ([1]; Mycobacterium intracellulare strain I): 10 µg/mL (≈ 33.1 µM); MIC ([1]; Mycobacterium intracellulare strain II): 1 µg/mL (≈ 3.31 µM); MIC ([1]; Mycobacterium intracellulare strain III): 1 µg/mL (≈ 3.31 µM); MIC ([1]; Mycobacterium intracellulare strain IV): 0.1 µg/mL (≈ 0.331 µM); MIC ([1]; Mycobacterium intracellulare strain V): 0.1 µg/mL (≈ 0.331 µM); MIC ([1]; Mycobacterium intracellulare strain VI): 0.1 µg/mL (≈ 0.331 µM); MIC (Neisseria gonorrhoeae; Neisseria gonorrhoeae isolate 135, read after 24 hours): 0.031 µg/mL (≈ 0.102 µM); MIC (Neisseria gonorrhoeae; Neisseria gonorrhoeae isolate 161, read after 24 hours): 0.016 µg/mL (≈ 0.0529 µM); MIC (Neisseria gonorrhoeae; Neisseria gonorrhoeae isolate 278, read after 24 hours): 0.031 µg/mL (≈ 0.102 µM); MIC (Neisseria gonorrhoeae; Neisseria gonorrhoeae isolate 455, read after 24 hours): 0.031 µg/mL (≈ 0.102 µM); MIC (Neisseria gonorrhoeae; Neisseria gonorrhoeae isolate 456, read after 24 hours): 0.031 µg/mL (≈ 0.102 µM); MIC (Neisseria gonorrhoeae; Neisseria gonorrhoeae isolate 602, read after 24 hours): 0.031 µg/mL (≈ 0.102 µM); MIC (Group D Enterococcus; Group D Enterococcus isolate I): 2 µg/mL (≈ 6.61 µM); MIC (Group D Enterococcus; Group D Enterococcus isolate II): 2 µg/mL (≈ 6.61 µM); MIC (Group D Enterococcus; Group D Enterococcus isolate III): 2 µg/mL (≈ 6.61 µM); MIC (Group D Enterococcus; Group D Enterococcus isolate IV): 2 µg/mL (≈ 6.61 µM); MIC (Group D Enterococcus; Group D Enterococcus isolate V): 2 µg/mL (≈ 6.61 µM)
2 | CCOC(=O)N1CCN(C(=S)NN=C(C)c2ccccn2)CC1 [Compound I, 1,4-Diaza-4-carboethoxycyclohexane-1-thiocarboxylic acid 2-[1-(2-pyridyl)ethylidene]hydrazide] | – | – | – | – | – | – | – | – | – | – | – | Toxic | Toxic | In vivo Antimalarial Activity ([2]; Dosage Level 10 mg/kg): Active; In vivo Antimalarial Activity ([2]; Dosage Level 20 mg/kg): Active
3 | CC(=NNC(=S)N1CCCCC1C)c1ccccn1 (stereo not shown) [B, 2-Methylpiperidine-1-thiocarboxylic acid 2-[1-(2-pyridyl)ethylidene]hydrazide] | 1 (≈ 3.62 µM) | 1 (≈ 3.62 µM) | 1 (≈ 3.62 µM) | 1 (≈ 3.62 µM) | 1 (≈ 3.62 µM) | 0.062 (≈ 0.224 µM) | 0.062 (≈ 0.224 µM) | 0.125 (≈ 0.452 µM) | 0.062 (≈ 0.224 µM) | 0.5 (≈ 1.81 µM) | 57 | Active | Toxic | In vivo Antimalarial Activity ([2]; Dosage Level 320 mg/kg): Toxic
